In assay [1] the target is T1, D4.4 receptor, human recombinant (CHO cells) (Homo sapiens, UniProt P21917).
T1 construct: expressed in transfected cells; host or cells: CHO cells
T1 sequence (P21917 1-419): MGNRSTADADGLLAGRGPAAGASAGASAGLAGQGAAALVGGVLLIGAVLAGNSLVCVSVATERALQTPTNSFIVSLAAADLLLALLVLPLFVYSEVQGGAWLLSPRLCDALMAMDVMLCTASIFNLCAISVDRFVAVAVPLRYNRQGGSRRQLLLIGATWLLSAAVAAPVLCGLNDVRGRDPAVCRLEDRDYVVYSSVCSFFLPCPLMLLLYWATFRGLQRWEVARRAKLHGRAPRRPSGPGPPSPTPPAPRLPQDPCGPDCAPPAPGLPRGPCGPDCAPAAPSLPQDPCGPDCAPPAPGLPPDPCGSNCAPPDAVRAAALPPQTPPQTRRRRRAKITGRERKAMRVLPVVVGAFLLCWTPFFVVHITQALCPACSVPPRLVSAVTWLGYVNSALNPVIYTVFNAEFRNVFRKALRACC
The experiment in a line: Binding assay, dopaminergic D4.4 receptor ([3H]methylspiperone). The following applies: compound 1×10^−6 M. As for the experimental part:
(§1) Moreover, ability of the compounds of the invention to block potassium channel hERG was tested.
(§2) The specific ligand binding to the receptors is defined as the difference between the total binding and the non-specific binding determined in the presence of an excess of unlabelled ligand.
(§3) The inhibition constants (Ki) were calculated using the Cheng Prusoff equation (Ki=IC50/(1+(L/KD)), where L=concentration of radioligand in the assay, and KD=affinity of the radioligand for the receptor). A Scatchard plot is used to determine the Kd. The IC50 values (concentration causing a half-maximal inhibition of control specific binding) and Hill coefficients (nH) were determined by non-linear regression analysis of the competition curves generated with mean replicate values using Hill equation curve fitting (Y=D+[(A−D)/(1+(C/C50)^nH)], where Y=specific binding, D=minimum specific binding, A=maximum specific binding, C=compound concentration, C50=IC50, and nH=slope factor). This analysis was performed using a software developed at Cerep (Hill software) and validated by comparison with data generated by the commercial software SigmaPlot® 4.0 for Windows® (©1997 by SPSS Inc.).
Experimental conditions for tests are given in Table 1, the results of tests for so representative compounds are given in Table 2a and 2b (receptors D2 and D3) and in Table 3 (receptors D4).

The target in assay [2] is T2, α2C adrenergic receptors, human recombinant (CHO cells) (Homo sapiens, UniProt P18825).
T2 construct: expressed in transfected cells; host or cells: CHO cells
T2 sequence (P18825 1-462): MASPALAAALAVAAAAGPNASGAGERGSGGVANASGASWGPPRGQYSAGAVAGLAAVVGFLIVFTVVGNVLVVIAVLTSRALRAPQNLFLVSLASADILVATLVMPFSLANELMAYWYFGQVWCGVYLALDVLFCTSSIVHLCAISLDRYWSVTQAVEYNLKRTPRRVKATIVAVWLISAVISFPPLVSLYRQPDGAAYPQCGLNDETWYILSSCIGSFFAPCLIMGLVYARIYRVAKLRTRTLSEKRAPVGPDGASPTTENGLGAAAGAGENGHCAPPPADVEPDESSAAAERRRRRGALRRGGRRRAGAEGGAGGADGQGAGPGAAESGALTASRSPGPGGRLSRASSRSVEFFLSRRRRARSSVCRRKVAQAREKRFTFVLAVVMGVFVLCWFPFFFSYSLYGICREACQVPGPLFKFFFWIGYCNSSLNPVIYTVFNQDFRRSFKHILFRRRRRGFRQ
Briefly: Binding assay, α2C adrenergic receptor ([3H]RX 821002). The settings on record: for α2C [%] affinity test result: compound 1×10^−6 M; for Ki: read-out: Inhibition constant Ki α2C. The protocol: as §1, §2, §3
Experimental conditions for tests are given in Table 7, and results of tests for representative compounds are given in Tables 8a and 8b (α1 receptors) and in Tables 9a and 9b (α2C receptors).

Assay [3] deals with T3, H1 histaminergic receptors, human recombinant (HEK-293 cells) (Homo sapiens, UniProt P35367).
T3 construct: expressed in transfected cells; host or cells: HEK-293 cells
T3 sequence (P35367 whole entry): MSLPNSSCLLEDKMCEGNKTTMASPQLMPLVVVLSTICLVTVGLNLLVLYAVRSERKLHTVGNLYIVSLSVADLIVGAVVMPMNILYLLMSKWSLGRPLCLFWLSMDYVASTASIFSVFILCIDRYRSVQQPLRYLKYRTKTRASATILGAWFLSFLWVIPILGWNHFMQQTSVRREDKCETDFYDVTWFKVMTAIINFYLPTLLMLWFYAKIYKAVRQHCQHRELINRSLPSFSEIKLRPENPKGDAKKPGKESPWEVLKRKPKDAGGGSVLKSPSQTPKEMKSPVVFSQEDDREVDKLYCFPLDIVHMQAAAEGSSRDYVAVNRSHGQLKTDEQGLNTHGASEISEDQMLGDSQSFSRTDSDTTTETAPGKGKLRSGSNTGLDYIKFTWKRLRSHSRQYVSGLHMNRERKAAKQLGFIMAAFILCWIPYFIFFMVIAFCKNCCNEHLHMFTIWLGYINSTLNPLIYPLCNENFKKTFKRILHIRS
Briefly: Binding assay, H1 histaminergic receptor ([3H]pyrilamine). The following applies: for H1 [%] affinity test result: compound 1×10^−6 M; for Ki: read-out: Inhibition constant Ki H1. The protocol: as §1, §2, §3
Experimental conditions for tests are given in Table 14, and results of tests for representative compounds are given in Table 15a and 15b.

For assay [4], the target named is T4, D2S (h), human recombinant (HEK-293 cells) (Homo sapiens, UniProt P14416).
T4 construct: expressed in transfected cells; host or cells: HEK-293 cells
T4 sequence (P14416 1-414 isoform P14416-2): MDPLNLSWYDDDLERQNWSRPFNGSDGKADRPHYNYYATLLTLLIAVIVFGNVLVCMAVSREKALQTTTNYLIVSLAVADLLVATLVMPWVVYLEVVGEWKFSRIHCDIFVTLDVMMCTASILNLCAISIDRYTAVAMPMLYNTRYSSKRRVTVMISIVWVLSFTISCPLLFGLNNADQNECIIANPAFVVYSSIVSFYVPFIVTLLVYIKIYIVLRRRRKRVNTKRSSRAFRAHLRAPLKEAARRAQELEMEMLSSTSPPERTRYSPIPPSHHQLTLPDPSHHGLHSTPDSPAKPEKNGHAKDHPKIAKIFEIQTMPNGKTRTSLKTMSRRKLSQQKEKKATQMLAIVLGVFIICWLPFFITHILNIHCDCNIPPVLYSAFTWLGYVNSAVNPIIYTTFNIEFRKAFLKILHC
Briefly: Cellular functional assay D2S (h) antagonism. It counts as cell-based. The settings on record: HEK293; compound 1×10^−6 M; stimulus dopamine 30 nM; read-out: D2-antag [%]. The protocol: (§4) The results are expressed as a percent of control specific agonist response ((measured specific response/control specific agonist response)×100) obtained in the presence of tested compound.
(§5) The EC50 values (concentration producing a half-maximal specific response) and IC50 values (concentration causing a half-maximal inhibition of the control specific agonist response) were determined by non-linear regression analysis of the concentration-response curves generated with mean replicate values using Hill equation curve fitting (Y=D+[(A−D)/(1+(C/C50)nH)], where Y=specific response, D=minimum specific response, A=maximum specific response, C=compound concentration, and C50=EC50 or IC50, and nH=slope factor).
(§6) For the antagonists, the apparent dissociation constants (Kb) were calculated using the modified Cheng Prusoff equation (Kb=IC50/(1+(A/EC50A)), where A=concentration of reference agonist in the assay, and EC50A=EC50 value of the reference agonist).

Assay [5] has as its target T5, D3 (h), human recombinant (CHO cells) (Homo sapiens, UniProt P35462).
T5 construct: expressed in transfected cells; host or cells: CHO cells
The experiment in a line: Cellular functional assay D3 (h) antagonism. It counts as cell-based. The settings on record: compound 1×10^−6 M; stimulus dopamine 10 nM. As for the experimental part: as §4, §5, §6

Assay [6] has as its target T6, 5-HT1A (h), human recombinant (CHO cells) (Homo sapiens, UniProt P08908).
T6 construct: expressed in transfected cells; host or cells: CHO cells
T6 sequence (P08908 1-422): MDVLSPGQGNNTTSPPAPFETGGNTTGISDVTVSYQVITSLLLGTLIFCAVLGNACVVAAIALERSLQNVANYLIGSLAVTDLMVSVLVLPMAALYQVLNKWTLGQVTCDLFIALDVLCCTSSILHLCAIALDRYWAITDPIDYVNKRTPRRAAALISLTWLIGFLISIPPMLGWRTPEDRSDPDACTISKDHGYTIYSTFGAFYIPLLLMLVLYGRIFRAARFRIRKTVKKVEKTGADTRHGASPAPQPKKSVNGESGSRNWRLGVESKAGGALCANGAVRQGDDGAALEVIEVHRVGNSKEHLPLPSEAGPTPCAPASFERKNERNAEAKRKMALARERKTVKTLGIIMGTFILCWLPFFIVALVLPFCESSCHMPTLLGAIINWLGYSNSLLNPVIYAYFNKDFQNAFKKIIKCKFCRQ
The experiment in a line: Cellular functional assay 5-HT1A (h) agonism. It counts as cell-based. The following applies: compound 1×10^−6 M; control 100 nM 8-OHDPAT. The protocol:
as §4, §5, §6

Assay [7] deals with T7, 5-HT6 (h), human recombinant (CHO cells) (Homo sapiens, UniProt P50406).
T7 construct: expressed in transfected cells; host or cells: CHO cells
T7 sequence (P50406 whole entry): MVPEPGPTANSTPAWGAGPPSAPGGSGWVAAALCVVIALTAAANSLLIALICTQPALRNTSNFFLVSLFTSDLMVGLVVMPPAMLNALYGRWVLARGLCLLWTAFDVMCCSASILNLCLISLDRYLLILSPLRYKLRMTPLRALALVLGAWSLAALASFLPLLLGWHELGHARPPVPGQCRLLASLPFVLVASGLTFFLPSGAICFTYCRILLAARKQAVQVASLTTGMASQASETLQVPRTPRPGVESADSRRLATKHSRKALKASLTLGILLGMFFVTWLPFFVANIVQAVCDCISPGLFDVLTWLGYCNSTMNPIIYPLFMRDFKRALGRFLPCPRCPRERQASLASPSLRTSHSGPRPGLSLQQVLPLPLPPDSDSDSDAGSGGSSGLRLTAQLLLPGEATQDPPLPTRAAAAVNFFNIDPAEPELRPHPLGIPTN
Briefly: Cellular functional assay 5-HT6 (h) antagonism. It counts as cell-based. The following applies: compound 1×10^−6 M, stimulus serotonin 100 nM, read-out: 5-HT6-antag [%]. As for the experimental part:
as §4, §5, §6

T5 sequence (P35462 whole entry): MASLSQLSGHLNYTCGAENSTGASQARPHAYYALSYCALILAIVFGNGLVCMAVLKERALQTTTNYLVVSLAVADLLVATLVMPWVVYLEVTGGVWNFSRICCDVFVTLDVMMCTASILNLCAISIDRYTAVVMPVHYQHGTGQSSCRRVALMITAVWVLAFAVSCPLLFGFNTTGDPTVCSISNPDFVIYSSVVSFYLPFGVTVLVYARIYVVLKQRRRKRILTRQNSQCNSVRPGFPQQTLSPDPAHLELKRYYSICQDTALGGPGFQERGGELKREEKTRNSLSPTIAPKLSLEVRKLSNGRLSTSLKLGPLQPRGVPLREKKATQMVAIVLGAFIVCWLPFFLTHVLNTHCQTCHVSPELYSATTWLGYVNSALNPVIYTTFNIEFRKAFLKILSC

In the case of `O=C1CCc2ccc(OCCCN3CCN(c4cccc5c4ccn5Cc4ccccc4)CC3)cc2N1` [Compound 4, 7-[3-[4-(1-Benzylindol-4-yl)piperazin-1-yl]propoxy]-3,4-dihydro-1H-quinolin-2-one], the “D4.4 [%] binding assay result” value in assay [1] is on record as 63%. In addition, the “α2C [%] affinity test result” value in assay [2] worked out at 93%. Also, the “H1 [%] affinity test result” value in assay [3] was 73%. In addition, the results for the inhibition at 1 µM in assay [4] and in assay [7] were 89% and 73%, respectively. The “D3-antag [%]” value in assay [5] was found to be 29%. In addition, the “5-HT1A-ag [%]” value in assay [6] amounted to 63%.
As for `O=C1CCc2ccc(OCCCCN3CCN(c4cccc5c4ccn5Cc4ccccc4)CC3)cc2N1` [Compound 5, 7-(4-(4-(1-Benzyl-1H-indol-4-yl)piperazin-1-yl)butoxy)-3,4-dihydroquinolin-2(1H)-one], the “D4.4 [%] binding assay result” value in assay [1] came to 40%. Further, in assay [2], the “α2C [%] affinity test result” value was 93%. Also, the “H1 [%] affinity test result” value in assay [3] turned out to be 88%. The inhibition at 1 µM came to 99% in assay [4] and 42% in assay [7]. The “D3-antag [%]” value in assay [5] was 43%. For the same compound, in assay [6], the “5-HT1A-ag [%]” value came to 66%.
By Ki is commonly meant a measure of affinity in units of concentration, obtained from inhibition or displacement. Regarding `O=C1CCc2ccc(OCCCN3CCN(c4cccc5c4ccn5S(=O)(=O)c4ccccc4)CC3)cc2N1` [Compound 23, 7-[3-[4-[1-(Benzensulphonyl)indol-4-yl]piperazin-1-yl]propoxy]-3,4-dihydro-1H-quinolin-2-one], the “D4.4 [%] binding assay result” value in assay [1] is listed as 18%. In addition, in assay [2], the “α2C [%] affinity test result” value was determined as 32% and the Ki was determined as 0.44 µM. In assay [3], the “H1 [%] affinity test result” value came to 72% and the Ki came out at 0.15 µM. For the same compound, the inhibition at 1 µM in assay [4] is 55%. Also, the “D3-antag [%]” value in assay [5] is listed as −19%. Besides, the “5-HT1A-ag [%]” value in assay [6] is given as 69%. Moreover, in assay [7], the inhibition at 1 µM turned out to be 42%.
On to `O=C1CCc2ccc(OCCCCN3CCN(c4cccc5c4ccn5S(=O)(=O)c4ccccc4)CC3)cc2N1` [Compound 24, 7-(4-(4-(1-(Phenylsulphonyl)-1H-indol-4-yl)piperazin-1-yl)butoxy)-3,4-dihydroquinolin-2(1H)-one], for which the “D4.4 [%] binding assay result” value in assay [1] came out at 42%. Moreover, in assay [2], the “α2C [%] affinity test result” value worked out at 78% and the inhibitory constant (Ki) stood at 0.15 µM. In assay [3], the “H1 [%] affinity test result” value worked out at 78% and the Ki is 0.1 µM. In addition, in assay [4], the inhibition at 1 µM was 93%. Besides, the “D3-antag [%]” value in assay [5] was found to be 63.2%. The “5-HT1A-ag [%]” value in assay [6] is reported as 69.7%. In assay [7], the inhibition at 1 µM was determined as 88.7%.
`O=C1CCc2ccc(OCCCCN3CCN(c4cccc5c4ccn5Cc4cccc(F)c4)CC3)cc2N1` [Compound 63, 7-[4-[4-[1-[(3-Fluorophenyl)methyl]indol-4-yl]piperazin-1-yl]butoxy]-3,4-dihydro-1H-quinolin-2-one]: the “D4.4 [%] binding assay result” value in assay [1] worked out at 46%. The “α2C [%] affinity test result” value in assay [2] is 100%. Also, in assay [3], the “H1 [%] affinity test result” value is listed as 81%. The inhibition at 1 µM was determined as 108% in assay [4] and 61% in assay [7]. Further, the “D3-antag [%]” value in assay [5] is listed as 72%. Further, the “5-HT1A-ag [%]” value in assay [6] is 26%.
Regarding `O=C1CCc2ccc(OCCCCN3CCN(c4cccc5c4ccn5Cc4cccc(Cl)c4)CC3)cc2N1` [Compound 67, 7-[4-[4-[1-[(3-Chlorophenyl)methyl]indol-4-yl]piperazin-1-yl]butoxy]-3,4-dihydro-1H-quinolin-2-one], in assay [1], the “D4.4 [%] binding assay result” value was determined as 44%. In addition, the “α2C [%] affinity test result” value in assay [2] is 97%. The inhibition at 1 µM amounted to 103% in assay [4] and 53% in assay [7]. For the same compound, in assay [5], the “D3-antag [%]” value was 74%. Further, in assay [6], the “5-HT1A-ag [%]” value is recorded as 23%.
Take `NC(=O)c1ccccc1OCCCN1CCN(c2cccc3c2ccn3S(=O)(=O)c2ccccc2)CC1` [Compound 72, 2-[3-[4-[1-(Benzenesulfonyl)indol-4-yl]piperazin-1-yl]propoxy]-benzamide]: the “D4.4 [%] binding assay result” value in assay [1] worked out at 95%. For the same compound, in assay [2], the “α2C [%] affinity test result” value came to 74%. The “H1 [%] affinity test result” value in assay [3] was 80%. In addition, the inhibition at 1 µM in assay [4] is 95%; in assay [7], 103%. The “D3-antag [%]” value in assay [5] was 74%. Also, the “5-HT1A-ag [%]” value in assay [6] was found to be 16%.
